Earlier results, collected in publication PMC4610172, “5-Arylaminouracil Derivatives as Potential Dual-Action Agents” (Acta Naturae, 2015).

Tested on: MS-115 strain with multiple-drug resistance
Settings: MS-115 resistant to isoniazid, rifampicin, streptomycin, ethambutol, pyrazinamide; cited from earlier work

CCCCOc1ccc(Nc2cn(C3C=CC(O)C3)c(=O)n(C3C=CC(O)C3)c2=O)cc1 (stereo not shown) [Compound 19]
Activity against MS-115 strain relative to sensitive H37Rv laboratory strain: higher activity against the MS-115 strain
